In ChEMBL document CHEMBL1201862, “PubChem BioAssay data set” (2004):
Calls of active or inactive are those of the source.

Key:
Cytochrome P450 2D6 = Cytochrome P450 2D6 (Homo sapiens, UniProt P10635);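 note: CYP2D6 member of a cytochrome P450 panel assay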
Cytochrome P450 2C9 = Cytochrome P450 2C9 (Homo sapiens, UniProt P11712)
[1] = tested on: Streptococcus sp. 'group A'; assay: Streptococcus pyogenes SK(-)GAS viability under kanamycin – luminescence, BacTiterGlo, confirmation, counter-screen for streptokinase expression inhibitor project, dose response (AID 1900); type: functional, organism-based
Streptokinase A = molecular target: T1, Streptokinase A (Streptococcus pyogenes serotype M1, UniProt P10520); assay: viability-normalized secreted streptokinase activity reduction – plasminogen activation absorbance, OD405, dose response (AID 1914); type: functional, Streptococcus pyogenes M1 GAS;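 note: secreted streptokinase activity via plasminogen activation per viability signal from cell pellet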
T1 sequence (P10520 whole entry): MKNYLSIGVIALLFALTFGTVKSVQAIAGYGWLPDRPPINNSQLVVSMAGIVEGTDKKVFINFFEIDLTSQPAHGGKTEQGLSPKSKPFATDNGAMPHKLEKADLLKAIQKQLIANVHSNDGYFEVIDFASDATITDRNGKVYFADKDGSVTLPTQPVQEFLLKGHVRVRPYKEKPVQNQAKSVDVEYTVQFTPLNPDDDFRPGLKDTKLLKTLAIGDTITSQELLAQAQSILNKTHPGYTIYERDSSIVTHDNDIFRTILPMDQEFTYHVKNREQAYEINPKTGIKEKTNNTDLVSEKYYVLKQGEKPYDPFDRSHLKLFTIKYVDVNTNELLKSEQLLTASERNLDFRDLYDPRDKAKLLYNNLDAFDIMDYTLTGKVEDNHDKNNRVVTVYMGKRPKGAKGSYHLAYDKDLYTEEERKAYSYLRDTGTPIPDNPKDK

Streptococcus = assay: GAS UMAA2166 growth inhibition – luminescence, BacTiterGlo, counter-screen for streptokinase expression inhibitor project, dose response (AID 1915); type: functional, organism-based;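 note: potency for reduction of bacterial viability or growth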
[2] = Trypanosoma cruzi growth suppression in host cells – NIH3T3 host cells, beta-gal luminescence, confirmation (AID 2044); type: functional, cell-based;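 note: intracellular parasites grown in NIH/3T3 mouse fibroblasts as host cells; luminescent beta-galactosidase reporter signal from transgenic T. cruzi replicating inside host cells; inhibitors lower the luminescence signal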
[3] = NIH3T3 cell viability loss – ATP luminescence, mouse fibroblasts, counter-screen, dose response (AID 2010); type: functional, cell-based;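 note: cells exposed to compound for about 90 hours before reading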
Cytochrome P450 3A4 = Cytochrome P450 3A4 (Homo sapiens, UniProt P08684);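 note: CYP3A4 tested as one member of a cytochrome P450 panel screen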
Sequence of Cytochrome P450 3A4 (P08684 whole entry): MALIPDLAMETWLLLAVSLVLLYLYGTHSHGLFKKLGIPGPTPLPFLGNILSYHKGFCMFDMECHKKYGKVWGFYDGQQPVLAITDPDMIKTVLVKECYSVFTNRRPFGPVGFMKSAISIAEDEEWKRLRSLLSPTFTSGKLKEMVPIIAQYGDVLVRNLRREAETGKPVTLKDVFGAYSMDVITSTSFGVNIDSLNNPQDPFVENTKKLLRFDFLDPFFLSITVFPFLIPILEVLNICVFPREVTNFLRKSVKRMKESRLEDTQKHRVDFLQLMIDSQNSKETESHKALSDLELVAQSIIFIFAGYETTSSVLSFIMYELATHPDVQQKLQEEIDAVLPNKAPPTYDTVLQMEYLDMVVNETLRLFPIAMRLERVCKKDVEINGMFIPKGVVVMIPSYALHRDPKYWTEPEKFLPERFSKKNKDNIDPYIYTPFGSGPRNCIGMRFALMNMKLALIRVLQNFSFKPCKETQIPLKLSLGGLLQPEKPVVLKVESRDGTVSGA

Cytochrome P450 2C19 = Cytochrome P450 2C19 (Homo sapiens, UniProt P33261); assay: Cytochrome panel assay with activity outcomes. Panel member name: p450-cyp2c19 Compounds with AC50 equal or less than 10 uM are considered active; type: functional; conditions: read-out: AC50
Sequence of Cytochrome P450 2C19 (P33261 whole entry): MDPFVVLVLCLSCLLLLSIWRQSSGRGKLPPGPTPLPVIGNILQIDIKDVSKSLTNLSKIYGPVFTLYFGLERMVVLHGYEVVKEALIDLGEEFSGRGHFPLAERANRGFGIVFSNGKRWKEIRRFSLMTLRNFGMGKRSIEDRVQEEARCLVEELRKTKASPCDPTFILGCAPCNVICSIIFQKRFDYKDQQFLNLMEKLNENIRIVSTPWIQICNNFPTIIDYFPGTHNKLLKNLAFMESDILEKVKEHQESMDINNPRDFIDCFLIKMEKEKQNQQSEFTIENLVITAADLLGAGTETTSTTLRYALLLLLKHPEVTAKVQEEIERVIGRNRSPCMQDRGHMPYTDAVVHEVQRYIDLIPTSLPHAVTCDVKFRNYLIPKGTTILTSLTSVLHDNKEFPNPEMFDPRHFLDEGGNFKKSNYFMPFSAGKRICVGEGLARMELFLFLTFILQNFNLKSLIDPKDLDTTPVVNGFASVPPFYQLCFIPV

Sequence of Cytochrome P450 2D6 (P10635 whole entry): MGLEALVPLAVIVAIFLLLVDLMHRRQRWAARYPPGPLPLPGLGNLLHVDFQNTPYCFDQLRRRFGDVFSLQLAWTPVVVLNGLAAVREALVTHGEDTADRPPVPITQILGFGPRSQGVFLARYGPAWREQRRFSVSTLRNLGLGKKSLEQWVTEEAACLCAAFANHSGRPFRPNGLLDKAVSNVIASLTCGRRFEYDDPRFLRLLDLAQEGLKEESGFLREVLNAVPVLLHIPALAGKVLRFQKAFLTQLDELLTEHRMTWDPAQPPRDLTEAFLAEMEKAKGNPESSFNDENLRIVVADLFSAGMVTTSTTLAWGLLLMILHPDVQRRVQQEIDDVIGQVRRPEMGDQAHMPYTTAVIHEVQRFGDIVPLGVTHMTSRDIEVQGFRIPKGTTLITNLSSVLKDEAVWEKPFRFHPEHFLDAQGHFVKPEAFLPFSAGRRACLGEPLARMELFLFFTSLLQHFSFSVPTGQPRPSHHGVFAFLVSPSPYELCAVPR
Sequence of Cytochrome P450 2C9 (P11712 whole entry): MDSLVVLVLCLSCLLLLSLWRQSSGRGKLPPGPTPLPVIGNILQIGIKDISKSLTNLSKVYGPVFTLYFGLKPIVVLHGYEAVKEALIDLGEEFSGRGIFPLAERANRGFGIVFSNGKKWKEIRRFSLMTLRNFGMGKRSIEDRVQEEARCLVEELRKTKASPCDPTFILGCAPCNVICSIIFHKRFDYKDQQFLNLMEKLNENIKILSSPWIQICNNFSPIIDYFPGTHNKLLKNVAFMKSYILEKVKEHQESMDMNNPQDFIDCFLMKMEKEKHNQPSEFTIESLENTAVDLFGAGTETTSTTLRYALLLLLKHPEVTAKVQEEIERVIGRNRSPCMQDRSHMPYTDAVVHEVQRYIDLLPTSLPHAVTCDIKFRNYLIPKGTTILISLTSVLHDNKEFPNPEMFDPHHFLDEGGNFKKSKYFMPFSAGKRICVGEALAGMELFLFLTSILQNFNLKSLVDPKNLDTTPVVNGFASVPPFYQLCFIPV

SMILES	AC50 (Cytochrome P450 2D6)	EC50 [1]	EC50 (Streptokinase A)	EC50 (Streptococcus)	other results
Clc1ccccc1-c1nc(Nc2ccncc2)c2ccccc2n1	39.8 µM (inconclusive)	–	–	–	AC50 (Cytochrome P450 2C9): 1.58 µM (inconclusive)
COc1ccccc1NS(=O)(=O)c1cccc(C(=O)OCC(=O)Nc2cc(C)on2)c1	31.6 µM (inconclusive)	–	–	–	AC50 (Cytochrome P450 2C9): 12.6 µM (inconclusive)
Cc1ccccc1-c1nccc(Nc2ccc(F)cc2)n1	20 µM (inconclusive)	–	–	–	–
O=C(Nc1cccc(-c2nnc(-c3ccccc3)o2)c1)c1ccc(Br)o1	–	9.53 µM (active)	> 150 µM (not active)	14.2 µM (active)	–
Brc1ccc(-c2cn3c(n2)CCc2ccc4cccnc4c2-3)cc1	–	4.51 µM (active)	23.8 µM (active)	> 150 µM (not active)	–
CC1=NN(C(=Nc2ccc(C(C)(C)C)cc2)Nc2nnc(C)s2)[C@H](c2ccc(C)cc2)S1	–	8.28 µM (active)	13.9 µM (active)	> 150 µM (not active)	EC50 [2]: 1.85 µM (active); EC50 [3]: > 60 µM (not active)
COc1ccccc1-c1nc(NCCN2CCOCC2)c2ccccc2n1	31.6 µM (inconclusive)	–	–	–	AC50 (Cytochrome P450 3A4): 31.6 µM (inconclusive)
COCCn1c(N)c(C(=O)NS(=O)(=O)c2ccc(C)cc2)c(=O)[nH]c1=O	–	> 150 µM (not active)	> 150 µM (not active)	> 150 µM (not active)	–
C[C@@H]1CC[C@@]2(OC1)O[C@H]1C[C@H]3[C@@H]4CC=C5C[C@@H](O)[C@H](O)C[C@]5(C)C4CC[C@]3(C)[C@H]1[C@@H]2C (stereo partly specified)	–	4.77 µM (active)	> 150 µM (not active)	16.4 µM (active)	–
COC(=O)CSc1nnc(-c2cnccn2)n1C	–	> 150 µM (not active)	> 150 µM (not active)	> 150 µM (not active)	–
O=C(Nc1cccc(F)c1)N1CC2(CCN(S(=O)(=O)c3ccccc3)CC2)C1	39.8 µM (inconclusive)	–	–	–	AC50 (Cytochrome P450 2C19): 15.8 µM (inconclusive); AC50 (Cytochrome P450 2C9): 20 µM (inconclusive)
Cc1cc2oc(=O)cc(CN(C)Cc3ccccc3Cl)c2cc1C	–	20.8 µM (active)	14.4 µM (active)	> 150 µM (not active)	–
Cc1ccc(C2=C(Cl)C(=O)C(c3ccc(C)cc3)=C(Cl)C2=O)cc1	3.98 µM (inconclusive)	–	–	–	AC50 (Cytochrome P450 2C19): 3.98 µM (inconclusive)
Cc1ccc2nc(-c3ccc(NS(=O)(=O)c4ccc(F)c(F)c4)cc3)sc2c1	–	2.65 µM (active)	5.1 µM (active)	5.92 µM (active)	–
O=C(NC(=S)Nc1ccc(Br)cn1)c1cncc(Br)c1	0.631 µM (inconclusive)	–	–	–	AC50 (Cytochrome P450 2C19): 35.5 µM (inconclusive); AC50 (Cytochrome P450 2C9): 0.447 µM (inconclusive)
O=C(Nc1cc(Cl)cc(Cl)c1)Nc1cnccn1	–	7.66 µM (active)	> 150 µM (not active)	> 150 µM (not active)	–
COc1cccc(/C=N/NC(=O)c2cc(-c3cccn3C)[nH]n2)c1	0.00794 µM (inconclusive)	–	–	–	–
CN(C)c1ccc(-c2ccc3ncnc(NCc4ccccc4)c3c2)cc1	12.6 µM (inconclusive)	–	–	–	–
